Test results taken from PubChem BioAssay (NCI).
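Protocol summary: plate cells (96-well), add compound at 5 concentrations, incubate 48 h, interpolate endpoints linearly. GI50 marks 50% less growth. TGI marks complete inhibition of growth.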

Assays:
Experiment in all cases: NCI anticancer screen, dose series, 48 h
UACC-62 melanoma = test system: UACC-62 melanoma
NCI/ADR-RES ovarian = test system: NCI/ADR-RES ovarian
SF-539 CNS = test system: SF-539 CNS
RXF 393 renal = test system: RXF 393 renal
SN12C renal = test system: SN12C renal
TK-10 renal = test system: TK-10 renal
SW-620 colon = test system: SW-620 colon
SNB-19 CNS = test system: SNB-19 CNS
SK-MEL-2 melanoma = test system: SK-MEL-2 melanoma
COLO 205 colon = test system: COLO 205 colon
HCT-15 colon = test system: HCT-15 colon
RPMI-8226 leukemia = test system: RPMI-8226 leukemia
SK-MEL-28 melanoma = test system: SK-MEL-28 melanoma
ACHN renal = test system: ACHN renal
OVCAR-4 ovarian = test system: OVCAR-4 ovarian
PC-3 prostate = test system: PC-3 prostate
NCI-H460 lung = test system: NCI-H460 lung
OVCAR-5 ovarian = test system: OVCAR-5 ovarian
A498 renal = test system: A498 renal
MCF7 breast = test system: MCF7 breast
UACC-257 melanoma = test system: UACC-257 melanoma
BT-549 breast = test system: BT-549 breast
SK-OV-3 ovarian = test system: SK-OV-3 ovarian
HOP-62 NSCLC = test system: HOP-62 NSCLC
CAKI-1 renal = test system: CAKI-1 renal
MOLT-4 leukemia = test system: MOLT-4 leukemia
HT29 colon = test system: HT29 colon
HL-60(TB) leukemia = test system: HL-60(TB) leukemia
LOX IMVI melanoma = test system: LOX IMVI melanoma
NCI-H522 lung = test system: NCI-H522 lung
EKVX NSCLC = test system: EKVX NSCLC
K-562 leukemia = test system: K-562 leukemia
OVCAR-3 ovarian = test system: OVCAR-3 ovarian
NCI-H23 lung = test system: NCI-H23 lung
NCI-H226 lung = test system: NCI-H226 lung
SF-295 CNS = test system: SF-295 CNS
HCC-2998 colon = test system: HCC-2998 colon
UO-31 renal = test system: UO-31 renal
MDA-MB-435 = test system: MDA-MB-435
KM12 colon = test system: KM12 colon
CCRF-CEM leukemia = test system: CCRF-CEM leukemia
MDA-MB-468 breast = test system: MDA-MB-468 breast
IGROV1 ovarian = test system: IGROV1 ovarian
MDA-MB-231 breast = test system: MDA-MB-231 breast
OVCAR-8 ovarian = test system: OVCAR-8 ovarian
DU-145 prostate = test system: DU-145 prostate
MALME-3M melanoma = test system: MALME-3M melanoma
M14 melanoma = test system: M14 melanoma
A549 NSCLC = test system: A549 NSCLC
HOP-92 NSCLC = test system: HOP-92 NSCLC
SF-268 CNS = test system: SF-268 CNS
SK-MEL-5 melanoma = test system: SK-MEL-5 melanoma
SNB-75 CNS = test system: SNB-75 CNS
SR leukemia = test system: SR leukemia
786-0 renal = test system: 786-0 renal
T-47D breast = test system: T-47D breast
HS 578T breast = test system: HS 578T breast
U251 CNS = test system: U251 CNS
HCT-116 colon = test system: HCT-116 colon

## COc1cccc(COc2ccc(/C=C3\Oc4cc(O)ccc4C3=O)cc2)c1
UACC-62 melanoma
  GI50: > 100 µM
  TGI: > 100 µM
NCI/ADR-RES ovarian
  GI50: > 100 µM
  TGI: > 100 µM
SF-539 CNS
  GI50: 23.4 µM
  TGI: > 100 µM
RXF 393 renal
  GI50: > 100 µM
  TGI: > 100 µM
SN12C renal
  GI50: > 100 µM
  TGI: > 100 µM
TK-10 renal
  GI50: > 100 µM
  TGI: > 100 µM
SW-620 colon
  GI50: 23.1 µM
  TGI: > 100 µM
SNB-19 CNS
  GI50: > 100 µM
  TGI: > 100 µM
SK-MEL-2 melanoma
  GI50: > 100 µM
  TGI: > 100 µM
COLO 205 colon
  GI50: > 100 µM
  TGI: > 100 µM
HCT-15 colon
  GI50: > 100 µM
  TGI: > 100 µM
RPMI-8226 leukemia
  GI50: > 100 µM
  TGI: > 100 µM
SK-MEL-28 melanoma
  GI50: > 100 µM
  TGI: > 100 µM
ACHN renal
  GI50: 4.97 µM
  TGI: > 100 µM
OVCAR-4 ovarian
  GI50: 2.94 µM
  TGI: 10.6 µM
PC-3 prostate
  GI50: > 100 µM
  TGI: > 100 µM
NCI-H460 lung
  GI50: > 100 µM
  TGI: > 100 µM
OVCAR-5 ovarian
  GI50: > 100 µM
  TGI: > 100 µM
A498 renal
  GI50: > 100 µM
  TGI: > 100 µM
MCF7 breast
  GI50: > 100 µM
  TGI: > 100 µM
UACC-257 melanoma
  GI50: > 100 µM
  TGI: > 100 µM
BT-549 breast
  GI50: > 100 µM
  TGI: > 100 µM
SK-OV-3 ovarian
  GI50: > 100 µM
  TGI: > 100 µM
HOP-62 NSCLC
  GI50: > 100 µM
  TGI: > 100 µM
CAKI-1 renal
  GI50: 85.2 µM
  TGI: > 100 µM
MOLT-4 leukemia
  GI50: > 100 µM
  TGI: > 100 µM
HT29 colon
  GI50: > 100 µM
  TGI: > 100 µM
HL-60(TB) leukemia
  GI50: > 100 µM
  TGI: > 100 µM
LOX IMVI melanoma
  GI50: > 100 µM
  TGI: > 100 µM
NCI-H522 lung
  GI50: > 100 µM
  TGI: > 100 µM
EKVX NSCLC
  GI50: > 100 µM
  TGI: > 100 µM
K-562 leukemia
  GI50: > 100 µM
  TGI: > 100 µM
OVCAR-3 ovarian
  GI50: > 100 µM
  TGI: > 100 µM
NCI-H23 lung
  GI50: > 100 µM
  TGI: > 100 µM
NCI-H226 lung
  GI50: > 100 µM
  TGI: > 100 µM
SF-295 CNS
  GI50: > 100 µM
  TGI: > 100 µM
HCC-2998 colon
  GI50: > 100 µM
  TGI: > 100 µM
UO-31 renal
  GI50: > 100 µM
  TGI: > 100 µM
MDA-MB-435
  GI50: > 100 µM
  TGI: > 100 µM
KM12 colon
  GI50: > 100 µM
  TGI: > 100 µM
CCRF-CEM leukemia
  GI50: > 100 µM
  TGI: > 100 µM
MDA-MB-468 breast
  GI50: 42.5 µM
  TGI: > 100 µM
IGROV1 ovarian
  GI50: > 100 µM
  TGI: > 100 µM
MDA-MB-231 breast
  GI50: > 100 µM
  TGI: > 100 µM
OVCAR-8 ovarian
  GI50: > 100 µM
  TGI: > 100 µM
DU-145 prostate
  GI50: > 100 µM
  TGI: > 100 µM
MALME-3M melanoma
  GI50: > 100 µM
  TGI: > 100 µM
M14 melanoma
  GI50: > 100 µM
  TGI: > 100 µM
A549 NSCLC
  GI50: > 100 µM
  TGI: > 100 µM
HOP-92 NSCLC
  GI50: 2.62 µM
  TGI: > 100 µM
SF-268 CNS
  GI50: > 100 µM
  TGI: > 100 µM
SK-MEL-5 melanoma
  GI50: > 100 µM
  TGI: > 100 µM

## O=c1cc(-c2ccccc2)oc2cc(OCCCNCc3ccccc3)cc(O)c12
UACC-62 melanoma
  GI50: 1.77 µM
  TGI: 3.49 µM
SF-539 CNS
  GI50: 5.64 µM
  TGI: 18.7 µM
RXF 393 renal
  GI50: 1.97 µM
  TGI: 8.11 µM
SN12C renal
  GI50: 4.19 µM
  TGI: 24.6 µM
TK-10 renal
  GI50: 14.8 µM
  TGI: 28.8 µM
SW-620 colon
  GI50: 5.98 µM
  TGI: 21.1 µM
SNB-19 CNS
  GI50: 10.4 µM
  TGI: 31.2 µM
SK-MEL-2 melanoma
  GI50: 6.43 µM
  TGI: 19.7 µM
SNB-75 CNS
  GI50: 2.4 µM
  TGI: 16.5 µM
COLO 205 colon
  GI50: 1.98 µM
  TGI: 3.82 µM
HCT-15 colon
  GI50: 3.54 µM
  TGI: 13.1 µM
RPMI-8226 leukemia
  GI50: 3.46 µM
  TGI: > 100 µM
SK-MEL-28 melanoma
  GI50: 2.31 µM
  TGI: 5.39 µM
ACHN renal
  GI50: 3.42 µM
  TGI: 14.2 µM
OVCAR-4 ovarian
  GI50: 2.78 µM
  TGI: 8.84 µM
PC-3 prostate
  GI50: 5.05 µM
  TGI: 32.4 µM
NCI-H460 lung
  GI50: 4.15 µM
  TGI: 20.8 µM
OVCAR-5 ovarian
  GI50: 10 µM
  TGI: 22.9 µM
A498 renal
  GI50: 3.94 µM
  TGI: 16.9 µM
MCF7 breast
  GI50: 2.61 µM
  TGI: 10.3 µM
UACC-257 melanoma
  GI50: 2.13 µM
  TGI: 5.1 µM
BT-549 breast
  GI50: 8.5 µM
  TGI: 22.2 µM
SK-OV-3 ovarian
  GI50: 10.2 µM
  TGI: 22.6 µM
HOP-62 NSCLC
  GI50: 11.5 µM
  TGI: 44.4 µM
SR leukemia
  GI50: 2.91 µM
  TGI: > 100 µM
CAKI-1 renal
  GI50: 2.41 µM
  TGI: 11 µM
786-0 renal
  GI50: 2.98 µM
  TGI: 15.5 µM
MOLT-4 leukemia
  GI50: 3.53 µM
  TGI: > 100 µM
HT29 colon
  GI50: 3.15 µM
  TGI: 27.3 µM
HL-60(TB) leukemia
  GI50: 1.89 µM
  TGI: 5.03 µM
T-47D breast
  GI50: 2.81 µM
  TGI: 8.68 µM
LOX IMVI melanoma
  GI50: 1.84 µM
  TGI: 3.92 µM
HS 578T breast
  GI50: 4.08 µM
  TGI: 33.7 µM
NCI-H522 lung
  GI50: 6.21 µM
  TGI: 26.2 µM
EKVX NSCLC
  GI50: 13.8 µM
  TGI: 36.4 µM
K-562 leukemia
  GI50: 3.16 µM
  TGI: > 100 µM
OVCAR-3 ovarian
  GI50: 10 µM
  TGI: 23.7 µM
NCI-H23 lung
  GI50: 11.9 µM
  TGI: 26.3 µM
NCI-H226 lung
  GI50: 11.1 µM
  TGI: 41.9 µM
SF-295 CNS
  GI50: 4.72 µM
  TGI: 18 µM
U251 CNS
  GI50: 3.69 µM
  TGI: 19.1 µM
HCC-2998 colon
  GI50: 1.91 µM
  TGI: 3.64 µM
UO-31 renal
  GI50: 1.15 µM
  TGI: 8.66 µM
MDA-MB-435
  GI50: 10.1 µM
  TGI: 21.7 µM
KM12 colon
  GI50: 3.77 µM
  TGI: 14.5 µM
CCRF-CEM leukemia
  GI50: 5.29 µM
  TGI: > 100 µM
MDA-MB-468 breast
  GI50: 2.08 µM
  TGI: 5.21 µM
IGROV1 ovarian
  GI50: 3.37 µM
  TGI: 15.7 µM
MDA-MB-231 breast
  GI50: 2.89 µM
  TGI: 12.9 µM
OVCAR-8 ovarian
  GI50: 10.2 µM
  TGI: > 100 µM
DU-145 prostate
  GI50: 7.59 µM
  TGI: 20.4 µM
MALME-3M melanoma
  GI50: 1.53 µM
  TGI: 3.2 µM
M14 melanoma
  GI50: 2.64 µM
  TGI: 6.88 µM
A549 NSCLC
  GI50: 4.33 µM
  TGI: 46.4 µM
HOP-92 NSCLC
  GI50: 1.56 µM
  TGI: 17.1 µM
HCT-116 colon
  GI50: 3.72 µM
  TGI: 27.7 µM
SF-268 CNS
  GI50: 4.81 µM
  TGI: 30.3 µM
SK-MEL-5 melanoma
  GI50: 5.04 µM
  TGI: 16.9 µM
